Patent publication US11033604B2, “Reagents and methods for treating bacterial infection” (priority 2018, dated 2021)
Positions of bridges follow the written chain, without caps; N, C: chain ends. Non-standard residues stand in square brackets, D forms with d. No end group written: not given here.

Columns and labels:
[1] = tested on: P. aeruginosa PAO1 pFap biofilms; assay: In situ ThT assay of Fap amyloid in P. aeruginosa biofilms; type: cell-based; settings: LB medium, 37° C., 48 h
From the text: FIG. 15. Action of synthetic α-sheet peptides in the P. aeruginosa system. […] Error bars indicate standard deviation of the mean of at least three replicates. Significance values are p<0.05: *, p<0.01: **, p<0.001: ***.
The strain used in these experiments is a fap-overexpressing mutant of P. aeruginosa PAO1 WT called PAO1 pFap. The overexpression is generated by cloning the entire fap operon into a host expression vector, which is then transformed into PAO1 WT. […] For in situ assays, overnight cultures from a single colony of freshly transformed PAO1 pFap were used to inoculate 96 well plates in the presence of synthetic α-sheet peptides in LB medium. As a control, biofilms of the deletion strain PAO1 Δfap were grown under the same conditions. Plates were covered and incubated at 37° C. for 48 h. After incubation, planktonic cells and media were gently removed from the biofilms by pipetting. The biofilms were rinsed once with PBS prior to staining with 20 μM ThT. Stained biofilms were resuspended by pipetting and sonication, and the fluorescence of ThT was measured at 448/485 nm in a plate reader.

S. mutans UA159 biofilms = assay: ThT assay for S. mutans biofilms (plate); type: cell-based, Streptococcus mutans; settings: 28 h, vs control
From the text: (§1) FIG. 16. Synthetic α-sheet peptides as a novel anti-biofilm agent for the dental pathogen, S. mutans. A) ThT fluorescence of S. mutans biofilms decreases upon addition of synthetic α-sheet peptides AP193, AP407, and AP90. […] D) synthetic α-sheet peptides added to S. mutans grown on hydroxyapatite ceramic particles led to significant decreases in ThT fluorescence.
The peptides AP90, AP407, AP193, P411, and P1 were screened for their ability to inhibit amyloid fibril formation using an optimized ThT assay for S. mutans biofilms. Briefly, S. mutans UA159 overnight cultures were diluted in BHI medium with 30 mM sucrose and 1% (v/v) EC Oxyrase(R) to ensure an oxygen-limited environment. Inocula were then mixed with inhibitors in water, or only water for blank conditions. Biofilms were cultivated at 37° C. in 96 well plates. After 28 h, planktonic cells and media were aspirated. Biofilms were rinsed once with PBS and then resuspended in a solution of 22 μM ThT in PBS. Stained biofilm suspensions were transferred to a new microtiter plate and their fluorescence was measured in a plate reader.
Several synthetic peptides caused significant suppression in the amyloid content of S. mutans biofilms, and the effect was specific to those with α-sheet structure. AP193 at 40 μM decreased ThT fluorescence by 33% (p=0.007). […] AP90 caused a 16% decrease in ThT fluorescence at 85 μM (p=0.017).

S. aureus MN8 biofilms = assay: ThT fluorescence assay of amyloid formation in S. aureus MN8 biofilm cultures; type: cell-based, Staphylococcus aureus; settings: for Effect on amyloid fibril formation in S. aureus biofilms (ThT fluorescence, FIG. 1B): MN8 and SH1000 WT strains, particularly MN8; for Effect on amyloid fibril formation in S. aureus biofilms (ThT fluorescence, FIG. 1B) / Reduction of amyloid fibril formation (ThT fluorescence): 24 h, 37° C.; for Reduction of amyloid fibril formation (ThT fluorescence): S. aureus MN8 biofilm, peptide 80 μM unless otherwise noted, vs peptide-free control
Procedure: We developed a novel protocol to identify amyloid fibril formation during biofilm development in two S. aureus strains—SH1000 WT, a rsbU^+ laboratory strain^27, and MN8, a clinical strain isolated from the human urogenital tract (Table 1). After 24 hours of batch growth in microtiter plates, biofilms were washed and incubated with Thioflavin T (ThT), and the resulting fluorescence signals served as a proxy for the extent of PSM fibril formation in the EM (FIG. 1A). Next, we utilized this assay to test α-sheet amyloid inhibitor designs and control peptides (sequences provided in Table 2) in batch biofilm cultures. The first inhibitor used is AP90 (Alternating Peptide #90, referred to as α1 previously^25,26). […] The AP401 and AP407 designs display similar spectral features by CD, except that AP401 has a positive signal in the random coil region (FIG. 7). AP401 has the same sequence as AP90 but with reversed chirality in the strands and turn, thus the D-amino acids give rise to an approximate mirror image CD spectrum relative to AP90. AP407 is a variant of AP90 with a disulfide bond. An unstructured random coil peptide (RC) and a β-hairpin (β) are used as structural controls.
Designed and control peptides were added to the growth medium prior to inoculation, and biofilms were allowed to grow for 24 hours at 37° C. Planktonic cells were removed and the remaining biofilms were assayed for amyloid content using ThT. […] The disulfide-linked peptide design, AP407, reduced the amyloid fibril formation by 46% and 56% in the MN8 and SH1000 WT strains, respectively. In contrast, the random coil and β-sheet control peptides were ineffective.
Overnight cultures of S. aureus (see Table 1 for a list of strains used in this study) were spun down and re-suspended in fresh Luria-Bertani (LB) media to an optical density of 0.1 (600 nm). These cultures were then mixed with reconstituted peptide (or water, in the case of controls) and aliquoted in quadruplicate into wells of a clear 48-well plate (Corning, TC-treated polystyrene). The final concentration of peptide in each well was 80 μM, unless otherwise noted. Plates were covered and biofilms were grown at 37° C. for 24 hours with gentle rocking. At this time, medium and planktonic cells were removed from wells using a vacuum and the remaining adherent biofilms were rinsed once with PBS (BupH™, Thermo Scientific). Thioflavin T (ThT), an established fluorescent label for amyloid fibrils^40, was then added to each well at a concentration of 22 μM and biofilms were incubated statically for 4 hours at room temperature. The solution was then removed from the wells and PBS was added with vigorous pipetting to detach biofilms from the plate surface. Plates were shaken at high speed for 1 minute on a plate shaker to detach any remaining biofilm material and homogenize the samples. The detached biofilm suspensions were transferred to a 96-well black-walled plate (Corning, TC-treated polystyrene) and ThT fluorescence was read at 438/495 nm on a Perkin-Elmer Enspire™ plate reader. Fluorescence measurements were corrected by subtracting the background intensity of identical samples without ThT. For calculation of live:dead cell ratios, biofilm suspensions were prepared as described above and cells were stained with a 1:1 mixture of Syto9 and propidium iodide (LIVE/DEAD BacLight™ Bacterial Viability Kit, Thermo Scientific). After 15 minutes of incubation at room temperature, fluorescence ratios of the two dyes were determined using a Perkin-Elmer Enspire™ plate reader.

[2] = tested on: S. mutans biofilms on hydroxyapatite; assay: ThT assay of S. mutans biofilms grown on ceramic-hydroxyapatite particles; type: cell-based, Streptococcus mutans; settings: 24 h
Procedure: as §1
To assess peptide inhibition of amyloid fibrils in S. mutans adhered to tooth-like surfaces, biofilms were grown on ceramic-hydroxyapatite particles. Hydroxyapatite is the primary mineral present in the structure of a tooth, so this assay is a more physiologically relevant model of S. mutans accumulation. ThT fluorescence of adhered biofilms was determined after 24 h of growth. Synthetic α-sheet peptides were added to medium and hydroxyapatite ceramic particles prior to cell growth. […] Both AP193 monomer and dimer caused significant decreases in ThT fluorescence (23% and 63%, respectively; FIG. 16D).

PSMα1 = tested on: PSMα1
From the text: FIG. 6. […] Error bars represent the standard error of the mean.

| Substance | Amyloid formation in biofilms (ThT) [1] | Decrease in ThT fluorescence (S. mutans UA159 biofilms; 85 μM) [%] | Effect on amyloid fibril formation in S. aureus biofilms (ThT fluorescence, FIG. 1B) (S. aureus MN8 biofilms) | Reduction of amyloid fibril formation (ThT fluorescence) (S. aureus MN8 biofilms) [%] | Decrease in ThT fluorescence ([2]; concentration not given) [%] | Decrease in ThT fluorescence (S. mutans UA159 biofilms; 40 μM) [%] | Binding of PSMα1 to peptide-functionalized beads (PSMα1; PSMα1 pre-incubated 0, 24, 48 h) | Decrease in ThT fluorescence ([2]; 100 μM) [%] | Change of binding affinity as PSMα1 converted to β-sheet (PSMα1; PSMα1 at 146 h vs end of lag phase) | Fibril formation with increasing peptide concentration (FIG. 1C) (S. aureus MN8 biofilms; S. aureus MN8 biofilms, increasing concentrations in culture medium) |
| --- | --- | --- | --- | --- | --- | --- | --- | --- | --- | --- |
| RGEmNlCwMNEYSGWcMnLkMGR (RGE[dM]N[dL]C[dW]MNEYSGW[dC]M[dN]L[dK]MGR; disulfide 7-16 (inferred)) [AP407, variant of AP90 with a disulfide bond] | significantly inhibit amyloid formation | 42 | significant reduction in amyloid fibril formation | 46 | – | – | – | – | – | – |
| RGEmNyFwMNEYYGWtMnCkMGR (RGE[dM]N[dY]F[dW]MNEYYGW[dT]M[dN]C[dK]MGR) [AP193] | significantly inhibit amyloid formation | – | – | – | 23 | 33 | preferentially bound α-sheet rich PSMα1 (48 h) over earlier time points | – | – | – |
| RGEmNlSwMNEYSGWtMnLkMGR (RGEMNLSWMNEYSGWTMNLKMGR; not fully specified (residues 4, 6, 8, 16, 18, 20); printed as RGEmNlSwMNEYSGWtMnLkMGR) [AP90] | significantly inhibit amyloid formation | 16 | significant reduction in amyloid fibril formation | 47 | – | – | – | 20 | dropped by two orders of magnitude | decreased in a dose-dependent manner |
